# Laboratory results from US5726041A, “Method for detecting a receptor-ligand complex using a cytochrome P450 reporter gene” (priority 1996, dated 1998).
# Like-named read-outs stand apart in the source and are kept apart here.
# How the values were obtained:
# AHH-1 TK± cells = system: AHH-1 TK± cells
# Source text: The reporter gene expression as reported in previous tables and figures is expressed as pmoles product/well in a 96 well microtiter plate as measured fluorometrically. […] A toxicity curve reflecting the relative number of cells/well present at the end of treatment was obtained as a function of chemical concentration. […] This suppression can be corrected for by determining the cell concentration in the well or by determining the suppression of CH activity in a cell line which constitutively expresses the reporter.
# [1] = system: PPARα/GR chimeric receptors
# Method: (§1) Cells containing chimeric receptors for the rat, mouse and human PPARα ligand binding domain and rat GR DNA binding domain, as well as control cells, were examined for CH induction by clofibrate in the presence of LPS and spironolactone during clofibrate treatment. Incubations contained 5 ug/ml E. coli lipopolysaccharide and 10 uM spironolactone and were uncorrected for cell progression. Incubations were performed under the same conditions as described above. […] Cells were grown in a volume of 0.2 ml in the wells of a 96 well microtiter plate from an initial cell density of 5×10^5 cells per ml. […] The T194, T194/T144 and T194/EH#7 cell lines contain the mouse PPARα cDNA.
# mouse PPARα = molecular target: T1, mouse PPARα (Mus musculus, UniProt P23204); test: Native PPARα / PPRE CYP2A6 reporter, coumarin 7-hydroxylase induction; conditions: for fold induction at 1100 µM: 1.1 mM clofibrate vs basal; for maximal fold induction: read-out: Maximum Fold Induction, clofibrate-induced CYP2A6 activity
# T1 sequence (P23204 1-468): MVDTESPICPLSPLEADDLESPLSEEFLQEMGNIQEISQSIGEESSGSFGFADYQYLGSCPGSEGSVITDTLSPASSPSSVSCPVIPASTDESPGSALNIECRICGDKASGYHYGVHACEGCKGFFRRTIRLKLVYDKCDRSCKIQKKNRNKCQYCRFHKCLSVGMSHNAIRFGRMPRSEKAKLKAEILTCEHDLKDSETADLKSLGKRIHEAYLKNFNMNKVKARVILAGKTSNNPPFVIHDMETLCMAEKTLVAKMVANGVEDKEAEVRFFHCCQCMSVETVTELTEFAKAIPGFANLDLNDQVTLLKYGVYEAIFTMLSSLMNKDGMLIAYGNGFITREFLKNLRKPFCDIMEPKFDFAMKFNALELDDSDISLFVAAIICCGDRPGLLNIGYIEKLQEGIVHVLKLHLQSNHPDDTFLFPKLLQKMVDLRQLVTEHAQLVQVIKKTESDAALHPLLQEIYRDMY
# Method: (§2) MMTV-LTR1 is native, MMTV-LTR2 is minus CpG, MMTV-LTR3 is TATA only. Orientation is relative to reporter. CH activity is pmole per 10^6 cell min. Assuming the cells double every 24 hours, the maximium cell density is 2×10^6 cells per ml, using the log average cell concentration for each day of exposure. Earliest post fusion-values were used. […] It is merely a concentration in the monotonic portion of the dose response curve which has been used consistently in many experiments.
# The comparison was performed by incubating 0.2 ml cells for 3 days in the wells of a microtiter plate at an initial cell concentration of 5×10^5 cells per ml in the presence of increasing amounts of inducer and 50 uM coumarin.
# (§3) In this test we used an initial cell concentration of 2 million cells/ml contained in 0.2 ml culture medium per well of a 96 well microtiter plate. Coumarin (0.05 mM) and clofibrate (concentration was an experimental variable) were added at the beginning of the incubation time. Cells were incubated for 3 days and the 7-hydroxycoumarin content in the wells was analyzed by fluorescence with excitation at 360 nm and emission at 460 nm using a Cytofluor 2350 (Millipore). […] The elevation in pH increases 7-hydroxycoumarin fluorescence by increasing the proportion of the fluorochrome which is ionized. Quantitation was achieved by comparison to a 7-hydroxycoumarin standard curve.
# The ACO-PPRE constructs were centrifuged and resuspended at a density of 2 million cells per milliliter in RPMI media with 9% horse serum. One hundred microliters of the cell suspension was distributed into a total of four rows, two rows being at the opposite end of a 96 well microtiter plate. One set was labeled as clofibrate and the other set was labeled as the blank. Clofibrate was then added at concentration of 3 mM, 2 mM, 1 mM, 0.5 mM & 0 mM to the appropriate wells. Stock concentration of clofibrate was 50 mM in 75 mM NaOH. One hundred microliters of media containing 100 micromolar coumarin was then added to the clofibrate containing wells. The negative control contained cell suspension and 100 uM coumarin only. The plates were placed at […] for three days. In a distinct set of wells, one hundred microliters of hydroxy-coumarin standard was placed in two rows The concentrations are in units of pmoles and the values are: 1250, 625, 313, 156, 78, 39, 19.5 & 0. At the end of the three day incubation period, one hundred microliters of media containing 100 uM coumarin was added to the wells labeled as blank. Next 0.1M Tris pH 9.0 was distributed to the contents of each well. Fluorescence was analyzed with a cytofluor 2350 (Millipore) with excitation at 360 nm and emission at 460 nm (both filters with a 40 nm bandwidth). The net fluorence was calculated by subtracting the fluorescence of the blank wells from the fluorescence of the test wells for each clofibrate concentration. Conversion to pmole product per well was accomplished by comparison to the fluorescence of the standards. The responsiveness of the different constructs to clofibrate induction was measured immediately after viable, hygromycin resistant cells were obtained and periodically thereafter in order to evaluate the stability of the system. The data were graphed as the fold induction relative to the without clofibrate control incubation. This is a measure of the responsiveness of the system and corrects for differences in the negative control values for the different reporter constructs.
# hPPAR = molecular target: T2, hPPAR (Homo sapiens, UniProt Q07869); test: cell-based; conditions: 1.1 mM clofibrate vs basal
# T2 sequence (Q07869 1-468): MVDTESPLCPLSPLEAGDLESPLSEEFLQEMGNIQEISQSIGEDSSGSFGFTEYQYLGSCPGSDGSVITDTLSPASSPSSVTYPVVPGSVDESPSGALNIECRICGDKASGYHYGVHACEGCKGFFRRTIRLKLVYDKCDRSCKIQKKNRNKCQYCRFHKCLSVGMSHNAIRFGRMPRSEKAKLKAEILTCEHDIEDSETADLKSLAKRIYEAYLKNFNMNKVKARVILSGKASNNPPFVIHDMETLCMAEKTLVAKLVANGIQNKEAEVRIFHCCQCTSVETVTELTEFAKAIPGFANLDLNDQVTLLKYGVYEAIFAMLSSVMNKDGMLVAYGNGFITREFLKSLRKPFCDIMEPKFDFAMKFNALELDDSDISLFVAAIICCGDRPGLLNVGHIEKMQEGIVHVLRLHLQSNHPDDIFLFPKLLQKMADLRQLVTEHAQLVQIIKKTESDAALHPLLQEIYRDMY
# Method: as §2
# [2] = system: reporter construct without PPARα; test: CYP2A6 reporter in control cells without PPARα or chimeric receptor; conditions: for fold induction at 1100 µM: Homo sapiens, 1.1 mM clofibrate vs basal
# Method: as §1, §2
# The above-described assay conditions were used and the results were normalized to the respective basal expression levels.
# as §3
smiles,measurement,setting,value
CCOC(=O)C(C)(C)Oc1ccc(Cl)cc1 [clofibrate],difference in toxicity among cell lines,AHH-1 TK± cells,No differences in toxicity
same,toxicity to the cells,AHH-1 TK± cells,toxic
same,7-hydroxycoumarin production by cell lines containing the chimeras,[1],"very small but detectable, concentration-dependent increase"
same,CYP2A6-catalyzed coumarin 7-hydroxylase activity upon treatment of the cells,mouse PPARα,concentration dependent increase
same,clofibrate-induced activity relative to background levels,mouse PPARα,3 to 10 times
same,fold induction after growth in exponential cell culture,mouse PPARα,about 2 fold
same,"fold induction, initial",mouse PPARα,4 to 6 fold
same,increase in CYP2A6 expression after exposure to clofibrate,mouse PPARα,greater than 10 fold
same,potency rank on a molar basis,mouse PPARα,then clofibrate
same,ranking of chemicals of known ability to induce peroxisome proliferation,mouse PPARα,correctly rank
same,"reporter gene expression, concentration response",mouse PPARα,concentration-dependent increases
same,signal-to-noise ratio,mouse PPARα,about 10
same,fold induction at 1100 µM,"mouse PPARα; read-out: Coumarin Hydroxylase Activity Induced (Fold), cell line 7.10/T225, receptor orientation 3'-5' (HSVtk mPPAR; SV40, JCO, HSVtk#7)",0.9
same,fold induction at 1100 µM,"mouse PPARα; read-out: Coumarin Hydroxylase Activity Induced (Fold), cell line 7.3/T225, receptor orientation 3'-5' (HSVtk mPPAR; SV40, JCO, HSVtk#7)",0.9
same,fold induction at 1100 µM,"mouse PPARα; read-out: Coumarin Hydroxylase Activity Induced (Fold), cell line 7.3/T225, receptor orientation 5'-3' (HSVtk mPPAR; SV40, JCO, HSVtk#7)",1.5
same,fold induction at 1100 µM,"mouse PPARα; read-out: Coumarin Hydroxylase Activity Induced (Fold), cell line T194 (SV40 3'-5' mPPAR; HSVtk-OCT, ACO, HSVtkL15)",1.5
same,fold induction at 1100 µM,"mouse PPARα; read-out: Coumarin Hydroxylase Activity Induced (Fold), cell line T194/HSVtk#7 (SV40 3'-5' mPPAR; SV40, ACO, HSVtk#7)",3.3
same,fold induction at 1100 µM,"mouse PPARα; read-out: Coumarin Hydroxylase Activity Induced (Fold), cell line T194/T144 (SV40 3'-5' mPPAR; SV40, ACO, MMTV-LTR3)",1.2
same,fold induction at 1100 µM,"mouse PPARα; read-out: Coumarin Hydroxylase Activity Induced (Fold), cell line T247 (HSVtk 3'-5' mPPAR; HSVtk-OCT, JCO, HSVtkL15)",1.2
same,maximal fold induction,"mouse PPARα; high copy number reporter, vector T144/194, clone 6-1, sequential independent determinations",1.57
same,maximal fold induction,"mouse PPARα; high copy number reporter, vector T144/194, clone 6-3, sequential independent determinations",1.17
same,maximal fold induction,"mouse PPARα; high copy number reporter, vector T144/194, clone 6-4",1.36
same,maximal fold induction,"mouse PPARα; high copy number reporter, vector T194EH#7, clone 8-1",1.04
same,maximal fold induction,"mouse PPARα; high copy number reporter, vector T194EH#7, clone 8-5, sequential independent determinations",1.27
same,maximal fold induction,"mouse PPARα; high copy number reporter, vector T194EH#7, clone 8-11",1.15
same,maximal fold induction,"mouse PPARα; high copy number reporter, vector T194EH#7, clone 8-12",1.21
same,maximal fold induction,"mouse PPARα; high copy number reporter, vector T194EH#7, clone 8-14",1.15
same,maximal fold induction,"mouse PPARα; vector T194EH#7, clone 8-6 (probably no functional high copy reporter)",3.44
same,maximal fold induction,"mouse PPARα; vector T194EH#7, clone 8-16 (probably no functional high copy reporter)",3.73
same,fold induction at 1100 µM,"hPPAR; read-out: Coumarin Hydroxylase Activity Induced (Fold), cell line T248 (HSVtk 3'-5' hPPAR; HSVtk-OCT, JCO, HSVtkL15)",0.9
same,fold induction at 1100 µM,"hPPAR; read-out: Coumarin Hydroxylase Activity Induced (Fold), cell line T249 (HSVtk 3'-5' hPPAR; HSVtk-OCT, JCO, HSVtkL15)",1.1
same,7-hydroxycoumarin production in control cells,[2],No increase
same,clofibrate induction of CH activity in cells containing the reporter alone,[2],did not respond
same,induction of 7-hydroxycoumarin production in the absence of the PPARα,[2],no induction
same,fold induction at 1100 µM,"[2]; read-out: Coumarin Hydroxylase Activity Induced (Fold), cell line T192 (no receptor; HSVtk-OCT, ACO, HSVtkL15)",0.8
same,fold induction at 1100 µM,"[2]; read-out: Coumarin Hydroxylase Activity Induced (Fold), cell line T192/T144 (no receptor; HSVtk-OCT, ACO, MMTV-LTR3)",0.7
same,fold induction at 1100 µM,"[2]; read-out: Coumarin Hydroxylase Activity Induced (Fold), cell line T245 (no receptor; HSVtk-OCT, JCO, HSVtkL15)",0.9
